Results reported in patent US9592237B2, “Use of CB1 antagonists and/or inverse agonists for the preparation of drugs that increase motor neuron excitability” (Fundacion Del Hospital Nacional De Paraplejicos Para La …, priority 2009, dated 2017).

Columns and labels:
Male adult Wistar rats = assay: Forced run on conveyer belt (fatigue), uninjured rats; format: in vivo, rat; conditions: 0.25 mg/Kg intraperitoneal; for effect on latency (Δ latency) in forced run: after injection, compared with carrier, result in words; for improvement in resistance to fatigue (decrease in latency) with respect to carrier: single injection, average
Experimental: (§1) Animals. Male adult Wistar rats were used (300-350 g; 12 weeks old), obtained from Harlan-Interfauna Ibérica (Barcelona, Spain) kept in our animal house in a light:dark cycle of 12:12 hours, receiving food and water ad libitum. The animals were handled in accordance with the guides published in the “NIH Guide for the Care and Use of Laboratory Animals”, the principles covered by the “Guidelines for the Use of Animals in Neuroscience Research” published by the American Neuroscience Society, and the European Union Guidelines (Directive 86/609/EEC). The rats were assigned to the groups with injection of carrier or the CB1 antagonists/inverse agonists (rimonabant (SR141716A) or AM281). Five uninjured animals and 3 injured animals were used for each group.
(§2) The rats were acclimatized to the conveyer belt making them walk on the belt at low speed. The forced run protocol consisted of a first session of 15 minutes run (20 m/min, 5% inclination) followed by a second session 2 hours later (Fatigue 2 h). The same protocol was repeated the following day to study the continuance of the effects observed with the treatment (Fatigue 24 h). In order to keep the rats running throughout the study, mild electric shock was used (20 mV, 1.67 Hz) and, possible, gentle touches by the experimenter's hand. The drugs were administered immediately after the first session of the first day. The treatments consisted of a single intraperitoneal injection of SR141716A (0.25 mg/Kg), or AM281 (0.25 mg/Kg), or carrier (2.5% Bovine Serum Albumin, SIGMA, Spain, in 0.9% NaCl).
Latency was defined as the number of seconds during the experiment where the animals touched the grille located at the end of the conveyer belt. The animals that remained more than twice at the electric grille receiving discharges of over 10 seconds were considered exhausted and were returned to their cages. In this case, latency time was also considered the remaining time until the end of the protocol. The latency increase (αlatency) was calculated as the difference between the action of the rat at each time minus the values of the first session. Therefore, the negative measurements reflect a decrease in latency, and, therefore, an improvement in motor capacity.

healthy volunteers [1] = assay: Motor thresholds by transcranial magnetic stimulation (TMS), first dorsal interosseous; format: in vivo, human; conditions: % of maximum stimulator output, 24 hours after single dose of 20 mg, ±SD
Experimental: (§3) The objective of the present experiments was to use transcranial magnetic and electric stimulation to test the effects of a single dose of 20 mg of rimonabant in motor cortex and spinal motor neuron excitability.
(§4) A neurophysiological examination was carried out before and 24 hours after administration of a single dose of 20 mg of rimonabant.
(§5) Using transcranial magnetic stimulation (TMS) we evaluate the electromyographic response thresholds in the first dorsal interosseous (FDI) at rest and during voluntary contraction. Using transcranial electric stimulation (TES) we evaluate the electromyographic response thresholds in the first dorsal interosseous during voluntary contraction. Transcranial electric stimulation tends to activate the axons of the corticospinal neurons in the white matter whilst magnetic stimulation activates the same fibres trans-synaptically (Hallett, 2000 Jul. 13, 406 (6792):147-50). Therefore, the response evoked electrically are not as sensitive to changes in cortical excitability as those evoked by magnetic stimulation. We also evaluate short-latency intracortical facilitation (ICF). ICF was studied using the technique of Kujirai et al. (J Physiol. 1993 Nov; 471:501-19). […]

healthy volunteers [2] = assay: Active motor threshold by transcranial electric stimulation (TES); format: in vivo, human; conditions: % of maximum stimulator output; 24 hours after single dose of 20 mg; six subjects; baseline 19.6±6%; P=0.0164; ±SD
Experimental: as §3, §4
Using transcranial magnetic stimulation (TMS) we evaluate the electromyographic response thresholds in the first dorsal interosseous (FDI) at rest and during voluntary contraction. Using transcranial electric stimulation (TES) we evaluate the electromyographic response thresholds in the first dorsal interosseous during voluntary contraction. Transcranial electric stimulation tends to activate the axons of the corticospinal neurons in the white matter whilst magnetic stimulation activates the same fibres trans-synaptically (Hallett, 2000 Jul. 13, 406 (6792):147-50). Therefore, the response evoked electrically are not as sensitive to changes in cortical excitability as those evoked by magnetic stimulation. We also evaluate short-latency intracortical facilitation (ICF). ICF was studied using the technique of Kujirai et al. (J Physiol. 1993 Nov; 471:501-19).
In six subjects we also performed electric stimulation of the motor cortex during voluntary contraction. This was performed with a Digitimer D180A digital stimulator with a time constant of 50 μs. […]

healthy volunteers [3] = assay: Intracortical facilitation (ICF), paired-pulse TMS; format: in vivo, human; conditions: % of response to test stimulus without conditioning stimulus; 24 hours after single dose of 20 mg; baseline 117±21%; P=0.0212; ±SD
Experimental: as §4, §5
The response facilitation conditional upon the three different ISIs studied was then averaged to give a magnified average value. The amplitude of the motor evoked potentials was expressed as percentages of amplitude of the motor evoked potentials of the tests. […]

[4] = system: rats with moderate spinal cord lesion; assay: Modified forced run on conveyer belt, rats with moderate spinal cord lesion; format: in vivo, rat; conditions: 0.25 mg/Kg intraperitoneal; for improvement in resistance to fatigue (decrease in latency) with respect to carrier: 7 days after lesion, average
Experimental: as §1
as §2, with “The treatments consisted of a single intraperitoneal injection of SR141716A (0.25 mg/Kg), or AM281 (0.25 mg/Kg), or carrier (2.5% Bovine Serum Albumin, SIGMA, Spain, in 0.9% NaCl).” left out
Latency was defined as the number of seconds during the experiment where the animals touched the grille located at the end of the conveyer belt. […] The latency increase (αlatency) was calculated as the difference between the action of the rat at each time minus the values of the first session. […]
6 animals were subjected to a moderate spinal cord lesion by, using the “Infinite Horizon” motorized system (Precision Systems & Instrumentation, [PSI], Lexington, Ky.). […] The hydration state was monitored as was the presence of possible infections in the animals until the end of the experiment. […]

healthy volunteers [5] = assay: Adverse effects observed in subjects of the stimulation study; format: in vivo, human; conditions: single dose of 20 mg
Experimental: as §4
Nine healthy volunteers (average age±S.D 32.1±5.8 years) participated in the experiments using TMS (transcranial magnetic stimulation) and six participated in the experiments with electric stimulation. All subjects gave their informed written consent. The study was developed in accordance with the Declaration of Helsinki and approved by the Local Ethics Committee. The magnetic stimulation was developed using two Magstim 200 high-power magnetic stimulators (Magstim Co., Whitland, UK) connected to the Bistim Module during all measurements. A figure of 8 shaped coil was placed with an external diameter of 9 cm on the right motor cortex, in optimal position of the head to provoke a motor response in the contralateral first dorsal interosseous. The current induced a flow in the posteroanterior direction. The rest motor threshold (RMT) was defined as the stimulus of minimum intensity capable of producing a motor evoked response at rest (of around 50 μV in 50% of the 10 attempts). The active motor threshold (AMTtms) was defined as the stimulus of minimum intensity capable of producing a motor evoked response (around 200 μV in 50% of the 10 attempts) during the isometric contraction of the muscle tested at approximately 20% of the maximum. A constant voluntary contraction level was maintained by electromyogram display oscilloscope placed in front of the subject.
In six subjects we also performed electric stimulation of the motor cortex during voluntary contraction. This was performed with a Digitimer D180A digital stimulator with a time constant of 50 μs. The cathode was placed in the vertex and the anode at 7 cm laterally (anodic stimulation). We evaluate the active electric motor threshold (AMTtes) defined as the stimulus of minimum intensity capable of producing a motor evoked response of around 200 μV in 50% of ten attempts during the voluntary contraction.

| SMILES | effect on latency (Δ latency) in forced run (Male adult Wistar rats) | improvement in resistance to fatigue (decrease in latency) with respect to carrier (Male adult Wistar rats; 2 hours after fatigue) [s] | improvement in resistance to fatigue (decrease in latency) with respect to carrier (Male adult Wistar rats; 24 hours after fatigue) [s] | active motor threshold using transcranial magnetic stimulation (AMTtms), mean (healthy volunteers [1]; baseline 39±4%, P=0.0008) [%] | resting motor threshold using transcranial magnetic stimulation (RMT), mean (healthy volunteers [1]; baseline 48±6%, P=0.0775 (not significant)) [%] | active motor threshold using transcranial electric stimulation (AMTtes), mean (healthy volunteers [2]) [%] | intracortical facilitation (ICF), mean (healthy volunteers [3]) [%] | effect on latency (Δ latency) in forced run ([4]; 2 hours after injection compared with carriers, result in words) | improvement in resistance to fatigue (decrease in latency) with respect to carrier ([4]; 2 hours after fatigue) [s] | improvement in resistance to fatigue (decrease in latency) with respect to carrier ([4]; 24 hours after fatigue) [s] | duration of agitation and anxiety, average (healthy volunteers [5]; affected subjects) [h] | effects on attention (healthy volunteers [5]; healthy volunteers) | subjects with agitation and anxiety (healthy volunteers [5]; nine healthy volunteers) | subjects with nauseas (healthy volunteers [5]; nine healthy volunteers, during 24 h) |
| --- | --- | --- | --- | --- | --- | --- | --- | --- | --- | --- | --- | --- | --- | --- |
| Cc1c(C(=O)NN2CCOCC2)nn(-c2ccc(Cl)cc2Cl)c1-c1ccc(I)cc1 [AM281] | decreased latency | 185 | 207 |  |  |  |  |  |  |  |  |  |  |  |
| Cc1c(C(=O)NN2CCCCC2)nn(-c2ccc(Cl)cc2Cl)c1-c1ccc(Cl)cc1 [rimonabant, N-(piperidin-1-yl)-5-(4-chlorophenyl)-1-(2,4-dichlorophenyl)-4-methyl-1H-pyrazole-3-carboxamide] | decreased latency | 75 | 125 | 35.5±4 | 46.5±6 | 17.5±6 | 150±40 | decreased latency | 136 | 200 | 6 | moderate | Three of the subjects experienced agitation and anxiety | one suffered nauseas |
